The target of assay [1] is human CB1 receptor (hCB1) (Homo sapiens, UniProt P21554). Nature of the assay: cell-based. The assay is classed as cell-based. The following applies: for +/− HCB1: agonist or inverse agonist at hCB1; for EC50: groups >100 nM-10 μM and >10 μM, cAMP, CHO-K1 hCB1, read-out: EC50 HCB1. The procedure, abridged: (§1)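 Agonism or inverse agonism was assessed as change in intracellular cAMP in CHO-K1 cells expressing human CB1 or rat CB2 (genomic DNA, pcDNA3.1).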

Assay [2] concerns the target T1, rat CB2 receptor (rCB2) (Rattus norvegicus, UniProt Q9QZN9).
T1 sequence (Q9QZN9 1-360): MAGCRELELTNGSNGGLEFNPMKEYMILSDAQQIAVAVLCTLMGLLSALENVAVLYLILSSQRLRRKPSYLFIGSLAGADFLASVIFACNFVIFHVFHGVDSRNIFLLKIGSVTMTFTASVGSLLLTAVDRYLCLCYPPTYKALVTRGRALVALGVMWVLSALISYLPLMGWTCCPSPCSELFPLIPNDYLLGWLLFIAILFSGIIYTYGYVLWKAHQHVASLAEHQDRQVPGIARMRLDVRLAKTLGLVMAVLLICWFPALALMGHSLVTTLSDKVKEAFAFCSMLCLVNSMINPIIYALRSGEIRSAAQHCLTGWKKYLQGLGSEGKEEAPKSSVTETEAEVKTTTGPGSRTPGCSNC
Nature of the assay: cell-based. The assay is classed as cell-based. The following applies: for +/− RCB2: agonist or inverse agonist at rCB2. The procedure, abridged:
as §1

Structures are written as SMILES. pEC50: −log10 of the molar value. Read-outs that look alike come from different tables or passages of the source. Bounds are passed on as bounds.

We go through 23 compounds from patent US7517874B2 (priority 2007, dated 2009).

human CB1 receptor (hCB1), sequence (P21554 whole entry): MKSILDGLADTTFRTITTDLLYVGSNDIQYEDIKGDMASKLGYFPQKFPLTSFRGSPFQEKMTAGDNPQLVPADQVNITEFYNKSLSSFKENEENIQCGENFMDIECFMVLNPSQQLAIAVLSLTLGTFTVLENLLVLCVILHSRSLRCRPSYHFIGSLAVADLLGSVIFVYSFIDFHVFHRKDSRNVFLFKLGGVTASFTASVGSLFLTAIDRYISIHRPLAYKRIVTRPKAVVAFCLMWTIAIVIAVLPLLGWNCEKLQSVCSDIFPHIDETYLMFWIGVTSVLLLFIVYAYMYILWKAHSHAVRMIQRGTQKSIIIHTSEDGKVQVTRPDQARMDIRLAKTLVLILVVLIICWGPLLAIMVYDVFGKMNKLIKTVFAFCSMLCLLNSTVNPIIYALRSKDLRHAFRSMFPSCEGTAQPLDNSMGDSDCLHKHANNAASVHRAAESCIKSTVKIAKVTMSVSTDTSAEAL

Take `CC(C)NC(=O)N1CCn2c(-c3ccccc3)nc(C(=O)NC3C4(C)CCC(C4)C3(C)C)c2C1` (stereo not shown) [Compound 171, N7-isopropyl-3-phenyl-N1-(1,3,3-trimethylbicyclo[2.2.1]heptan-2-yl)-5,6-dihydroimidazo[1,5-a]pyrazine-1,7(8H)-dicarboxamide]: the pEC50 (commonly −log10 of the EC50, conventionally taken in molar units) in assay [1] was below 5.00. In addition, in assay [2], the “+/− RCB2” value is listed as “−”.

In assay [1], `CNC(=O)[C@@H](NC(=O)c1nc(-c2ccc(Cl)cc2F)n2c1CN(C1CCN(C(C)=O)CC1)CCC2)C(C)(C)C` [Compound 527, (S)-8-(1-acetylpiperidin-4-yl)-3-(4-chloro-2-fluorophenyl)-N-(3 3-dimethyl-1-(methylamino)-1-oxobutan-2-yl)-6,7,8,9-tetrahydro-5H-imidazo[1,5-a][1,4]diazepine-1-carboxamide] gave a negative logarithm of the EC50 (pEC50) below 5.00. Moreover, in assay [2], the “+/− RCB2” value is on record as “−”.

As for `CNC(=O)[C@@H](NC(=O)c1nc(-c2cc(F)c(OC)cc2F)n2c1CN(C)CCC2)C(C)(C)C` [Compound 424, (S)-3-(2,5-difluoro-4-methoxyphenyl)-N-(3,3-dimethyl-1-(methylamino)-1-oxobutan-2-yl)-8-methyl-6,7,8,9-tetrahydro-5H-imidazo[1,5-a][1,4]diazepine-1-carboxamide], the pEC50 in assay [1] was below 5.00. Also, the “+/− RCB2” value in assay [2] was “+”.

On to `CNC(=O)[C@@H](NC(=O)c1nc(/C=C/C2CC2)n2c1CN(C)CC2)C(C)(C)C` [Compound 273, (S,E)-3-(2-cyclopropylvinyl)-N-(3,3-dimethyl-1-(methylamino)-1-oxobutan-2-yl)-7-methyl-5,6,7,8-tetrahydroimidazo[1,5-a]pyrazine-1-carboxamide], for which the pEC50 in assay [1] and in assay [2] was below 5.00 in each case.

For `CN1CCCn2c(-c3ccccc3)nc(C(=O)N[C@H](C(=O)NC3CC3)C(C)(C)C)c2C1` [Compound 477, (S)-N-(1-(cyclopropylamino)-3,3-dimethyl-1-oxobutan-2-yl)-8-methyl-3-phenyl-6,7,8,9-tetrahydro-5H-imidazo[1,5-a][1,4]diazepine-1-carboxamide], in assay [1], the pEC50 was below 5.00. The “+/− RCB2” value in assay [2] is listed as “+”.

`CNC(=O)[C@H](CC(C)(C)C)NC(=O)c1nc(-c2ccc(Cl)c(F)c2)n2c1CN(C)CCC2` [Compound 550, (S)-3-(4-chloro-3-fluorophenyl)-N-(4,4-dimethyl-1-(methylamino)-1-oxopentan-2-yl)-8-methyl-6,7,8,9-tetrahydro-5H-imidazo[1,5-a][1,4]diazepine-1-carboxamide]: the negative logarithm of the EC50 (pEC50) in assay [1] is below 5.00. In assay [2], the “+/− RCB2” value is recorded as “−”.

`CCN1CCn2c(-c3ccccc3)nc(C(=O)NC3C4(C)CCC(C4)C3(C)C)c2C1` (stereo not shown) [Compound 144, 7-ethyl-3-phenyl-N-(1,3,3-trimethylbicyclo[2.2.1]heptan-2-yl)-5,6,7,8-tetrahydroimidazo[1,5-a]pyrazine-1-carboxamide] had a negative logarithm of the EC50 (pEC50) in assay [1] below 5.00. For the same compound, in assay [2], the “+/− RCB2” value was “−”.

For `CNC(=O)[C@@H](NC(=O)c1nc(C(=O)c2ccccc2)n2c1CN(C)CC2)C(C)(C)C` [Compound 289, (S)-3-benzoyl-N-(3,3-dimethyl-1-(methylamino)-1-oxobutan-2-yl)-7-methyl-5,6,7,8-tetrahydroimidazo[1,5-a]pyrazine-1-carboxamide], the pEC50 in assay [1] is below 5.00. In addition, the “+/− RCB2” value in assay [2] is reported as “−”.

As for `CC12CCC(C1)C(C)(C)C2NC(=O)c1nc(-c2ccccc2)n2c1CN(C(=O)C1CCOC1)CC2` (stereo not shown) [Compound 121, 3-phenyl-7-(tetrahydrofuran-3-carbonyl)-N-(1,3,3-trimethylbicyclo[2.2.1]heptan-2-yl)-5,6,7,8-tetrahydroimidazo[1,5-a]pyrazine-1-carboxamide], the negative-log EC50 (pEC50) in assay [1] was below 5.00. The “+/− RCB2” value in assay [2] is given as “−”.

With `Cc1noc([C@@H](NC(=O)c2nc(-c3ccccc3)n3c2CNCC3)C(C)(C)C)n1` [Compound 282, (S)-N-(2,2-dimethyl-1-(3-methyl-1,2,4-oxadiazol-5-yl)propyl)-3-phenyl-5,6,7,8-tetrahydroimidazo[1,5-a]pyrazine-1-carboxamide], the pEC50 in assay [1] and in assay [2] was below 5.00 throughout.

The compound `CNC(=O)[C@@H](NC(=O)c1nc(-c2ccc(C)o2)n2c1CN(C)CCC2)C(C)(C)C` [Compound 443, (S)-N-(3,3-dimethyl-1-(methylamino)-1-oxobutan-2-yl)-8-methyl-3-(5-methylfuran-2-yl)-6,7,8,9-tetrahydro-5H-imidazo[1,5-a][1,4]diazepine-1-carboxamide] gave a pEC50 in assay [1] below 5.00. In addition, the “+/− RCB2” value in assay [2] is reported as “−”.

Regarding `CC(C)C[C@H](NC(=O)c1nc(C2CCCCC2)n2c1CN(C)CCC2)C(N)=O` [Compound 570, (S)-N-(1-amino-4-methyl-1-oxopentan-2-yl)-3-cyclohexyl-8-methyl-6,7,8,9-tetrahydro-5H-imidazo[1,5-a][1,4]diazepine-1-carboxamide], the “+/− HCB1” value in assay [1] is on record as “+”. Moreover, the “+/− RCB2” value in assay [2] is on record as “+”.

`CNC(=O)[C@@H](NC(=O)c1nc(-c2ccc(C)c(F)c2)n2c1CN(C)CC2)C(C)(C)C` [Compound 240, (S)-N-(3,3-dimethyl-1-(methylamino)-1-oxobutan-2-yl)-3-(3-fluoro-4-methylphenyl)-7-methyl-5,6,7,8-tetrahydroimidazo[1,5-a]pyrazine-1-carboxamide] had a negative logarithm of the EC50 (pEC50) in assay [1] below 5.00. In assay [2], the “+/− RCB2” value is listed as “−”.

As for `CNC(=O)[C@@H](NC(=O)c1nc(-c2cccc(C(N)=O)c2)n2c1CN(C)CCC2)C(C)(C)C` [Compound 422, (S)-3-(3-carbamoylphenyl)-N-(3,3-dimethyl-1-(methylamino)-1-oxobutan-2-yl)-8-methyl-6,7,8,9-tetrahydro-5H-imidazo[1,5-a][1,4]diazepine-1-carboxamide], the negative logarithm of the EC50 (pEC50) in assay [1] and in assay [2] was below 5.00 in each case.

Turning to `CNC(=O)[C@@H](NC(=O)c1nc(-c2ccc(C)c(Cl)c2)n2c1CN(C)CCC2)C(C)(C)C` [Compound 334, (S)-3-(3-chloro-4-methylphenyl)-N-(3,3-dimethyl-1-(methylamino)-1-oxobutan-2-yl)-8-methyl-6,7,8,9-tetrahydro-5H-imidazo[1,5-a][1,4]diazepine-1-carboxamide], the negative logarithm of the EC50 (pEC50) in assay [1] and in assay [2] was below 5.00 throughout.

As to `CN1CCn2c(-c3ccc(Cl)cc3F)nc(C(=O)NC3CCN(C(=O)OC(C)(C)C)CC3)c2C1` [Compound 209, tert-butyl 4-(3-(4-chloro-2-fluorophenyl)-7-methyl-5,6,7,8-tetrahydroimidazo[1,5-a]pyrazine-1-carboxamido)piperidine-1-carboxylate], the pEC50 in assay [1] and in assay [2] was below 5.00 each time.

On to `CNC(=O)[C@@H](NC(=O)c1nc(C#Cc2ccccc2)n2c1CN(C)CC2)C(C)(C)C` [Compound 204, (S)-N-(3,3-dimethyl-1-(methylamino)-1-oxobutan-2-yl)-7-methyl-3-(phenylethynyl)-5,6,7,8-tetrahydroimidazo[1,5-a]pyrazine-1-carboxamide], for which the negative-log EC50 (pEC50) in assay [1] and in assay [2] was below 5.00 each time.

With `CNC(=O)[C@@H](NC(=O)c1nc(-c2ccc(Cl)cc2F)n2c1CN(c1ncccn1)CCC2)C(C)(C)C` [Compound 482, 3-(4-chloro-2-fluorophenyl)-N-(3,3-dimethyl-1-(methylamino)-1-oxobutan-2-yl)-8-(pyrimidin-2-yl)-6,7,8,9-tetrahydro-5H-imidazo[1,5-a][1,4]diazepine-1-carboxamide], the “+/− HCB1” value in assay [1] is reported as “+”. Further, the “+/− RCB2” value in assay [2] was “+”.

Consider `CNC(=O)[C@H](CC(C)C)NC(=O)c1nc(C2CCCCC2)n2c1CN(C)CCC2` [Compound 540, (S)-3-cyclohexyl-8-methyl-N-(4-methyl1-1-(methylamino)-1-oxopentan-2-yl)-6,7,8,9-tetrahydro-5H-imidazo[1,5-a][1,4]diazepine-1-carboxamide], for which the 50% effective concentration (EC50) (usually the midpoint of the concentration-response curve) in assay [1] is above 10000 nM. The “+/− RCB2” value in assay [2] is on record as “+”.

As for `O=C(c1nc(-c2ccccc2)n2c1CN(S(=O)(=O)c1ccc(F)cc1)CC2)N1CCOCC1` [Compound 105, (7-(4-fluorophenylsulfonyl)-3-phenyl-5,6,7,8-tetrahydroimidazo[1,5-a]pyrazine-1-yl)(morpholino)methanone], the EC50 in assay [1] is above 10000 nM. The “+/− RCB2” value in assay [2] was “−”.

In the case of `CN1CCn2c(-c3ccc(Cl)cc3F)nc(C(=O)N3CCC(N4C(=O)Cc5ccccc54)CC3)c2C1` [Compound 222, 1-(1-(3-(4-chloro-2-fluorophenyl)-7-methyl-5,6,7,8-tetrahydroimidazo[1,5-a]pyrazine-1-carbonyl)piperidin-4-yl)indolin-2-one], the pEC50 in assay [1] and in assay [2] was below 5.00 throughout.

In turn, `CNC(=O)[C@@H](NC(=O)c1nc(-c2ccc(Cl)cc2)n2c1CN(C)CC2)C(C)(C)C` [Compound 49, (S)-3-(4-chlorophenyl)-N-(3,3-dimethyl-1-(methylamino)-1-oxobutan-2-yl)-7-methyl-5,6,7,8-tetrahydroimidazo[1,5-a]pyrazine-1-carboxamide] gave a negative-log EC50 (pEC50) in assay [1] below 5.00. Further, in assay [2], the “+/− RCB2” value is “−”.

Take `CNC(=O)[C@@H](NC(=O)c1nc(-c2ccc(C)cc2Cl)n2c1CN(C)CCC2)C(C)(C)C` [Compound 367, (S)-3-(2-chloro-4-methylphenyl)-N-(3,3-dimethyl-1-(methylamino)-1-oxobutan-2-yl)-8-methyl-6,7,8,9-tetrahydro-5H-imidazo[1,5-a][1,4]diazepine-1-carboxamide]: the pEC50 in assay [1] and in assay [2] was below 5.00 in each case.
